PMC5268466, “Monofluorophosphate Blocks Internal Polysaccharide Synthesis in Streptococcus mutans” (PLoS ONE, 2017)

Molecular target: T1, S. mutans ADP-Glc PPase (GlgC/GlgD) (Streptococcus mutans, UniProt M9TIK1)
T1 sequence (M9TIK1 1-381): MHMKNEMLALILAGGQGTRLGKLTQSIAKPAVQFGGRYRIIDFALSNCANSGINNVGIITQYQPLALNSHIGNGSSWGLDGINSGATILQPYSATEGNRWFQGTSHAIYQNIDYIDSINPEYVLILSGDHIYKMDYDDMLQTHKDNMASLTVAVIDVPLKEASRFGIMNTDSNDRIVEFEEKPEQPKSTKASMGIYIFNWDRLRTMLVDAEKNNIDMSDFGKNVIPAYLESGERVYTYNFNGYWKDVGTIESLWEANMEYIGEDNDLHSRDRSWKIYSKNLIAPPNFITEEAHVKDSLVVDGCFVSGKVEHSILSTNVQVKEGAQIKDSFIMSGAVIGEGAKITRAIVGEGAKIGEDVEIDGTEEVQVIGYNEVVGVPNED
T1 sequence (M9TG57 1-377 partner): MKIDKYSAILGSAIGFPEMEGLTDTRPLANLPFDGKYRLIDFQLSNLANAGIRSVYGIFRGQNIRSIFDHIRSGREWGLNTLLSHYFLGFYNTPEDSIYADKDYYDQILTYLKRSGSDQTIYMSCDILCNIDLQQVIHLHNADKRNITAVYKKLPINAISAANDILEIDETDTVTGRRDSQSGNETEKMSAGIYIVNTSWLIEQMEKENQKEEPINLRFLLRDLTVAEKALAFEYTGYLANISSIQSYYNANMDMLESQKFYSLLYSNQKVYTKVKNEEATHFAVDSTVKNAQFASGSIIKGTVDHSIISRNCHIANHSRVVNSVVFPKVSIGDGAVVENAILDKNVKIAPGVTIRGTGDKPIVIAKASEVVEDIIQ
Conditions: 2500 µM, pH 8.0, 37 C, allosteric

With O=P(O)(O)O [Pi, orthophosphate] the “No Fru-1,6-bisP / Activity (% remaining activity)” value was 15 ± 2%.
